# Laboratory results published in PubChem BioAssay (NCI).
# Values joined by “and” are separate entries in the source; they are usually repeats but may differ in a detail not shown here. Equal values may be shown once.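 Exposure lasted 48 hours, with cells grown in 96-well plates and compounds tested at five concentrations. Here, GI50 denotes the concentration required for 50% inhibition of growth. TGI is the concentration that stops growth completely.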
# System: OVCAR-4 ovarian
# Experiment: growth of human tumour cells (NCI), 48 h
Compound,TGI [µM],GI50 [µM]
NNC(=S)N/N=C(\CC1OC(=O)c2ccccc21)c1ccccc1O (stereo not given),> 100,
COC(=O)C1=C(O)c2cc(OC)c(OC)cc2C(c2ccc(OC)c(OC)c2)C1 (stereo not given),> 100,
COC1(OC)CC2C(=O)N(Cc3ccccc3)C1C(S(=O)(=O)c1ccccc1)C2S(=O)(=O)c1ccccc1 (stereo not given),28.6,
NC(=Nc1c([N+](=O)[O-])cnc2ccccc12)N1CCOCC1,> 100,
CCN(CC)c1ccc2c(c1)OC(N)=C(C#N)C2c1cc(OC)c2c(c1)OCO2 (stereo not given),> 48.6,0.0754
N#CC(=C1C=CC(=NO)C=C1)c1ccccc1,15.4,3.02
CCCCCCCCCCCCCC1=NC(C)(C)CN1C(C)C,3.48,1.76
COC(=O)C(=Cc1cc(OC)ccc1OC)C(=O)OC,51.6,
CC(C)c1ccccc1NC(=O)CCc1n[nH]c(=S)o1,> 100,
CC(C)=CCNc1ncnc2c1ncn2C1OC(CO)C(O)C1O (stereo not given),> 1000,0.793
CCCCC(C(=O)C(=O)NC1C2CC3CC(C2)CC1C3)C(=O)C(C)C (stereo not given),> 100,
COc1ccc(CN2C(=O)/C(=C\C(=O)c3ccc(OCCN4CCCCC4)cc3)c3ccccc32)cc1,8.13,2.62
COC(=O)c1cc2c(s1)C(=O)c1ccccc1-2,> 100,
CCC(C)n1ncn(-c2ccc(N3CCN(c4ccc(OCC5COC(Cn6cncn6)(c6ccc(Cl)cc6Cl)O5)cc4)CC3)cc2)c1=O (stereo not given),> 100,35.2
CC(C)CCN1c2nc(Nc3cc(F)c(O)c(F)c3)ncc2N(C)C(=O)C1C (stereo not given),> 100,18.6
NC(=O)NC1C(c2ccccc2)=C1c1ccccc1,30.7,

# System: HCT-15 colon
# Experiment: growth of human tumour cells (NCI), 48 h
Compound,GI50,TGI
Cn1nc(N)c2cc([C@@H]3Nc4ccc5[nH]ncc5c4[C@H]4C5CCC(C5)[C@@H]34)ccc21 (stereo not given in full),0.425 µM,14 µM
Cn1cc(CO)c2c1C(=O)C=C(N1CC1)C2=O,< 0.01 µM,0.0818 µM
O=C(O)C1C2C=CC(O2)C1C(=O)NCc1ccccn1 (stereo not given),,> 100 µM
CC1=C(C(=O)Nc2ccccc2)C(c2ccccc2)C(C(=O)Nc2ccccc2)=C(C)N1,,> 100 µM
O=C(OC(CNc1cc(=O)n(Cc2ccccc2)c(=O)n1Cc1ccccc1)CN1CCCC1)c1ccccc1 (stereo not given),> 100 µM,> 100 µM
Cc1nn(-c2ccccc2)c2nc(N3CCOCC3)nnc12,,> 100 µM
CCN(CC)CCCC(CNc1ccnc2cc(Cl)ccc12)c1ccc(Cl)cc1 (stereo not given),0.535 µM and 0.984 µM,2.1 µM and 2.62 µM
CCOC(=O)CCCn1c(SC)nc2[nH]cc(-c3ccccc3)c2c1=O,27.1 µM,> 100 µM
CNC(=O)N(C)N=NCCCl,,> 100 µM
CCOc1ccccc1C=C1c2ccccc2C(=O)c2ccccc21,,> 100 µM
O=C(CCn1[nH]c(=O)c(Cl)c(Cl)c1=O)NO,,> 100 µM
CCN1CCN(C(c2ccc(C(F)(F)F)cc2)c2ccc3cccnc3c2O)CC1 (stereo not given),3.74 µM,17.6 µM
CC(C)=CC/C=C(/C)[C@H]1CC[C@]2(C)[C@@H]1CC[C@@H]1[C@@]3(C)CCCNC(C)(C)[C@@H]3CC[C@]12C,1.89 µM,3.56 µM
COc1ccc(C(C)=O)cc1N1C(=O)C2C(C1=O)C1(c3ccccc3)C(=O)C2(c2ccccc2)C(c2ccc(C)cc2)=C1c1ccc(C)cc1 (stereo not given),> 100 µM,> 100 µM
CN(C)c1nc2ccccc2[nH]1,,> 100 µM
NNC(=S)N/N=C(\CC1OC(=O)c2ccccc21)c1ccccc1O (stereo not given),,> 100 µM

Compound,GI50,TGI
COC(=O)C1=C(O)c2cc(OC)c(OC)cc2C(c2ccc(OC)c(OC)c2)C1 (stereo not given),,> 100 µM
COC1(OC)CC2C(=O)N(Cc3ccccc3)C1C(S(=O)(=O)c1ccccc1)C2S(=O)(=O)c1ccccc1 (stereo not given),,14.8 µM
NC(=Nc1c([N+](=O)[O-])cnc2ccccc12)N1CCOCC1,,> 100 µM
CCN(CC)c1ccc2c(c1)OC(N)=C(C#N)C2c1cc(OC)c2c(c1)OCO2 (stereo not given),0.0349 µM,3.93 µM
N#CC(=C1C=CC(=NO)C=C1)c1ccccc1,2.22 µM,12.3 µM
CCCCCCCCCCCCCC1=NC(C)(C)CN1C(C)C,1.32 µM,2.59 µM
COC(=O)C(=Cc1cc(OC)ccc1OC)C(=O)OC,,> 100 µM
CC(C)c1ccccc1NC(=O)CCc1n[nH]c(=S)o1,,> 56.9 µM
CC(C)=CCNc1ncnc2c1ncn2C1OC(CO)C(O)C1O (stereo not given),1.05 µM,36.8 µM
CCCCC(C(=O)C(=O)NC1C2CC3CC(C2)CC1C3)C(=O)C(C)C (stereo not given),,> 100 µM
COc1ccc(CN2C(=O)/C(=C\C(=O)c3ccc(OCCN4CCCCC4)cc3)c3ccccc32)cc1,1.67 µM,3.37 µM
COC(=O)c1cc2c(s1)C(=O)c1ccccc1-2,,> 100 µM
CCC(C)n1ncn(-c2ccc(N3CCN(c4ccc(OCC5COC(Cn6cncn6)(c6ccc(Cl)cc6Cl)O5)cc4)CC3)cc2)c1=O (stereo not given),15.3 µM,> 100 µM
CC(C)CCN1c2nc(Nc3cc(F)c(O)c(F)c3)ncc2N(C)C(=O)C1C (stereo not given),3.5 µM,> 49.1 µM
NC(=O)NC1C(c2ccccc2)=C1c1ccccc1,,32.4 µM

# System: MOLT-4 leukemia
# Experiment: growth of human tumour cells (NCI), 48 h
Compound,GI50,TGI
Cn1nc(N)c2cc([C@@H]3Nc4ccc5[nH]ncc5c4[C@H]4C5CCC(C5)[C@@H]34)ccc21 (stereo not given in full),0.556 µM,> 51 µM
Cn1cc(CO)c2c1C(=O)C=C(N1CC1)C2=O,2.64 µM,> 100 µM
O=C(O)C1C2C=CC(O2)C1C(=O)NCc1ccccn1 (stereo not given),,> 100 µM
CC1=C(C(=O)Nc2ccccc2)C(c2ccccc2)C(C(=O)Nc2ccccc2)=C(C)N1,,> 100 µM
O=C(OC(CNc1cc(=O)n(Cc2ccccc2)c(=O)n1Cc1ccccc1)CN1CCCC1)c1ccccc1 (stereo not given),> 100 µM,> 100 µM
Cc1nn(-c2ccccc2)c2nc(N3CCOCC3)nnc12,,> 100 µM
CCN(CC)CCCC(CNc1ccnc2cc(Cl)ccc12)c1ccc(Cl)cc1 (stereo not given),1.56 µM and 1.24 µM,4.91 µM and 4.22 µM
CCOC(=O)CCCn1c(SC)nc2[nH]cc(-c3ccccc3)c2c1=O,0.489 µM,10.1 µM
CNC(=O)N(C)N=NCCCl,,> 100 µM
CCOc1ccccc1C=C1c2ccccc2C(=O)c2ccccc21,,29.4 µM
O=C(CCn1[nH]c(=O)c(Cl)c(Cl)c1=O)NO,,> 100 µM
CCN1CCN(C(c2ccc(C(F)(F)F)cc2)c2ccc3cccnc3c2O)CC1 (stereo not given),2.12 µM,6.05 µM
CC(C)=CC/C=C(/C)[C@H]1CC[C@]2(C)[C@@H]1CC[C@@H]1[C@@]3(C)CCCNC(C)(C)[C@@H]3CC[C@]12C,2.15 µM,5.93 µM
COc1ccc(C(C)=O)cc1N1C(=O)C2C(C1=O)C1(c3ccccc3)C(=O)C2(c2ccccc2)C(c2ccc(C)cc2)=C1c1ccc(C)cc1 (stereo not given),> 100 µM,> 100 µM
CN(C)c1nc2ccccc2[nH]1,,> 100 µM
NNC(=S)N/N=C(\CC1OC(=O)c2ccccc21)c1ccccc1O (stereo not given),,75.6 µM

Compound,GI50,TGI
COC(=O)C1=C(O)c2cc(OC)c(OC)cc2C(c2ccc(OC)c(OC)c2)C1 (stereo not given),,> 100 µM
COC1(OC)CC2C(=O)N(Cc3ccccc3)C1C(S(=O)(=O)c1ccccc1)C2S(=O)(=O)c1ccccc1 (stereo not given),,46.6 µM
NC(=Nc1c([N+](=O)[O-])cnc2ccccc12)N1CCOCC1,,> 100 µM
CCN(CC)c1ccc2c(c1)OC(N)=C(C#N)C2c1cc(OC)c2c(c1)OCO2 (stereo not given),0.0497 µM,3.55 µM
N#CC(=C1C=CC(=NO)C=C1)c1ccccc1,3.04 µM,18.4 µM
CCCCCCCCCCCCCC1=NC(C)(C)CN1C(C)C,1.56 µM,3.26 µM
COC(=O)C(=Cc1cc(OC)ccc1OC)C(=O)OC,,> 100 µM
CC(C)c1ccccc1NC(=O)CCc1n[nH]c(=S)o1,,> 100 µM
CC(C)=CCNc1ncnc2c1ncn2C1OC(CO)C(O)C1O (stereo not given),0.457 µM,3.82 µM
CCCCC(C(=O)C(=O)NC1C2CC3CC(C2)CC1C3)C(=O)C(C)C (stereo not given),,> 100 µM
COc1ccc(CN2C(=O)/C(=C\C(=O)c3ccc(OCCN4CCCCC4)cc3)c3ccccc32)cc1,2.26 µM,6.26 µM
COC(=O)c1cc2c(s1)C(=O)c1ccccc1-2,,> 100 µM
CCC(C)n1ncn(-c2ccc(N3CCN(c4ccc(OCC5COC(Cn6cncn6)(c6ccc(Cl)cc6Cl)O5)cc4)CC3)cc2)c1=O (stereo not given),> 100 µM,> 100 µM
CC(C)CCN1c2nc(Nc3cc(F)c(O)c(F)c3)ncc2N(C)C(=O)C1C (stereo not given),4.1 µM,19.9 µM
NC(=O)NC1C(c2ccccc2)=C1c1ccccc1,,17.7 µM
